Tested on: AML12
Assay: Protection against CCl4-induced ferroptosis in mouse AML12 cells assessed as cell viability
Format: functional, cell-based

Compound `CC(=O)N(O)CCCCCNC(=O)CCC(=O)N(O)CCCCCNC(=O)CCC(=O)N(O)CCCCCN` [DEFEROXAMINE] has an EC50 of 8.83 µM.

From ChEMBL document CHEMBL5550205, “Discovery of a NCOA4 Degrader for Labile Iron-Dependent Ferroptosis Inhibition” (J Med Chem, 2024)
